# Several values for one entry are separate records, joined by “and”; a condition that tells them apart may be missing. Equal values may be shown once. Entries after “also recorded” stand apart in the source; their conditions may differ.
# Key:
# [1] = system: control 1321N1 astrocytoma cells; test: Intracellular Ca2+ response in control 1321N1 astrocytoma cells; type: cell-based, human; details: 10 μM, untransfected control 1321N1 astrocytoma cells
# CSQ heart failure mice [2] = test: Echocardiography-derived fractional shortening in CSQ heart failure mice after 28 days of subcutaneous minipump infusion; type: in vivo, mouse; details: for FS in % in CSQ Mice: at 3.3 μM, subcutaneous Alzet minipump infusion, 28 days, vehicle control 13.78 ± 1.19% (n = 16); for cardioprotection in the CSQ model (in words) / effect on echocardiography-derived FS / cardiac contractile function versus normal saline (in words): 3.3 μM, 28 days of infusion, CSQ mice
# Source text: Two of the phosphonates, 4 and 9, were able to cause an improved FS as compared to vehicle (FIG. 1, Table 1) and in comparison to the reference nucleotide 3. […] Thus, in the saturated phosphonate series, the orientation of the phosphorous relative to the methanocarba ring was somewhat structurally permissive, although inclusion of an olefin in the spacer prevented the cardioprotective action. In 11, one OH group of the phosphonate has been replaced with CH3. This reduces the overall charge on the molecule and is intended to make it more bioavailable. Evidently, the binding site of the receptor requires both oxygens for the most favorable improvement in FS. Therefore, as summarized in FIG. 1, the most significant improvement in FS was associated with the saturated homologues containing a 2-Cl substitution and an unmodified phosphonate group, 4 and 9.
# Compound 3 and its analogues were dissolved in phosphate-buffered saline, pH=7.4 at 3.3 μM (200 μL total volume), filtered for sterility for in vivo administration at 6 μL per day for 28 days via a mini-osmotic pump (Alzet) in the CSQ mice. Intact heart function in vivo was assessed by echocardiography following infusion of nucleotide- or vehicle
# human P2Y1 receptor = target: T1, human P2Y1 receptor (Homo sapiens, UniProt P47900); test: FLIPR assay of calcium flux in 1321N1 astrocytoma cells stably expressing the human P2Y1 receptor; type: cell-based
# T1 construct: T. K. Harden, University of North Carolina School of Medicine; host or cells: 1321N1 human astrocytoma cells
# Protocol: The phosphonate derivatives were tested in a FLIPR assay of calcium flux induced in 1321N1 astrocytoma cells stably expressing the human P2Y1 receptor.
# Cells were grown overnight in 100 ml of medium in 96-well flatbottom plates at 37° C. at 5% CO2 or until they reached ˜80% confluency. The calcium-4 assay kit (Molecular Devices, Sunnyvale, Calif.) was used as directed with no washing of cells. Cells were loaded with 40 mL dye with probenecid in each well and incubated for 1 h at rt. The compound plate was prepared with dilutions of various compounds in Hank's Buffer at pH 7.2. Samples were run in duplicate with a FLIPR-Tetra (Molecular Devices) at rt. Cell fluorescence (excitation=485 nm; emission=525 nm) was monitored following exposure to a compound. Increases in intracellular calcium are reported as the maximum fluorescence value after exposure minus the basal fluorescence value before exposure.
# [3] = Stability in aqueous medium at pH 1.5 (simulated stomach acid); type: physicochemical; details: pH 1.5, over 24 hours
# Source text: (§1) The synthetic nucleotide analogue 3 activates the native cardiac P2X receptor, as indicated in electrophysiological experiments with normal cardiac myocytes and those that overexpress CSQ and based on its in vivo ability to improve the heart failure phenotype of these animals. The rigid carbocyclic ring system contained in this derivative stabilizes nucleotides toward the action of nucleotidases. […] In the present study, we have synthesized fully hydrolysis-resistant adenosine monophosphate derivatives based on phosphonate linkages.
# [4] = Hydrolysis on incubation at 37° C. with mammalian cell membranes (1321N1 astrocytoma cells); type: in vitro ADME; details: 1321N1 astrocytoma cell membranes
# Source text: as §1
# Further, the 5′-phosphate 3 and the prodrug 9a (MRS2944) are stable to acidic conditions representative of stomach acid (pH 1.5). […] Without being held to theory, it is believed that the prodrug approach will allow the masked drug to pass through the stomach to be absorbed intact in the intestines, and for the charged phosphoryl group to remain intact until the free drug reaches the site of action in the heart. Therefore, the stable phosphonates would be suitable in this scheme. The cleavage of the prodrug derivatives is to occur in circulation prior to reaching the tissue site of action, because intracellular internalization would be undesirable. Therefore, many of the prodrug schemes that aim for penetration of the masked drug into the cells, i.e. for antiviral or anticancer application of nucleotide derivatives, would likely not be suitable here.
# hP2Y1 receptor = target: T2, hP2Y1 receptor (Homo sapiens, UniProt P47900); details: initial characterization, previously reported; read-out: EC50, hP2Y1 receptor agonist, PLC; cited from earlier work
# T2 construct: host or cells: said to be the same cell line as the calcium assay (1321N1 astrocytoma cells expressing hP2Y1)
# aorta ring preparations = details: cited from earlier work
# CSQ myocyte = details: similar to that by compound 1, characteristic of the P2X4 receptor; cited from earlier work
# CSQ-overexpressing mouse = details: cited from earlier work
# CSQ heart failure mice [5] = test: Echocardiography (FS, LV wall thickness) in CSQ heart failure mice after 14 days of infusion; details: for cardioprotection in CSQ mice (in words) / effect on LV fractional shortening versus normal saline (in words): 14 days (two-week) infusion; for FS in % in CSQ Mice: at 10μM, 14 days of infusion, vehicle control 7.13 ± 1.49% (n = 4), phenotypically more severe CSQ mice than in Table 1; for prevention of LV wall thinning in heart failure (in words): two-week infusion
# mouse cardiac myocytes = details: voltage clamp; cited from earlier work
# [6] = 2-week infusion, CSQ mice, NS-infused 0.450±0.007 mm, P<0.05
# T1 sequence (P47900 whole entry): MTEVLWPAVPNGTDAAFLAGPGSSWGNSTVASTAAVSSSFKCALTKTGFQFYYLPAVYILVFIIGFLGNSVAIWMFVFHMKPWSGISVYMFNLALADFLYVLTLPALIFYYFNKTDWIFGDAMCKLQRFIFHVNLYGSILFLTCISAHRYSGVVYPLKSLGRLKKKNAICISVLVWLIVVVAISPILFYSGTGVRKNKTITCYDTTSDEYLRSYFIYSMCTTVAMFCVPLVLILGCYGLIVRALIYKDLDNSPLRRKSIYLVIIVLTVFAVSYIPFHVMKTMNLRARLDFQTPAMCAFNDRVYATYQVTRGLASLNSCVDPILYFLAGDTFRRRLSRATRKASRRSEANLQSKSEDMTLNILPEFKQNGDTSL
# T2 sequence (P47900 whole entry): as above
structure (smiles),measurement,setting,value
"CSc1nc(N)c2ncn([C@@H]3O[C@H](COP(=O)(O)OP(=O)(O)O)[C@@H](O)[C@H]3O)c2n1 [Compound 2-MeSADP, 2-MeSADP]",change in intracellular Ca2+ in control cells,[1],no change in intracellular Ca^2+
"Nc1nc(Cl)nc2c1ncn2[C@H]1[C@H](O)[C@H](O)C2(COP(=O)(O)O)C[C@H]12 (stereo partly drawn) [Compound 3, (1′S, 2′R,3′S,4′R,5′S)-4-(6-amino-2-chloro-9H-purin-9-yl)-1-[phosphoryloxymethyl]bicyclo[3.1.0]hexane-2,3-diol]",FS in % in CSQ Mice,CSQ heart failure mice [2],15.47 ± 1.15%
same,Emax,"human P2Y1 receptor; 1321-N1, read-out: maximal effect relative to the full agonist 2-MeSADP, hP2Y1 calcium flux",~80%
same,EC50,"human P2Y1 receptor; 1321N1 cells stably expressing hP2Y1, FLIPR-Tetra, n=3, read-out: EC50, Ca2+ flux, hP2Y1 receptor",722 ± 55 nM
same,stability to acidic conditions,[3],stable
same,hydrolysis in the presence of mammalian cell membranes,[4],considerable hydrolysis
same,EC50,hP2Y1 receptor,1890 nM
same,vasodilator action,aorta ring preparations,inability to dilate aortic rings; also recorded: devoid of any vasodilator action
same,current in the CSQ myocyte,CSQ myocyte,induced a current
same,longevity compared to vehicle-injected mice,CSQ-overexpressing mouse; Alzet mini-osmotic pump,significantly increased longevity
same,cross-section area of the cardiac myocytes,CSQ-overexpressing mouse; chronic administration,decreases
same,heart weight/body weight ratio,CSQ-overexpressing mouse; chronic administration,decreases
same,hypertrophic and heart failure phenotype,CSQ-overexpressing mouse; chronically administered,rescued the hypertrophic and heart failure phenotype
"Nc1nc(Cl)nc2c1ncn2[C@H]1[C@H](O)[C@H](O)C2(CP(=O)(O)O)C[C@H]12 (stereo partly drawn) [Compound 4, (1′S,2′R,3′S,4′R,5′S)-4′-(6-Amino-2-chloropurin-9-yl)-2′,3′-(dihydroxy)-1′-(phosphonomethylene)-bicyclo[3.1.0]hexane]",cardioprotection in the CSQ model (in words),CSQ heart failure mice [2],active
same,effect on echocardiography-derived FS / cardiac contractile function versus normal saline (in words),CSQ heart failure mice [2],increased shortening of both the septum and left ventricular (LV) free wall; also recorded: able to improve in vivo cardiac contractile performance; also recorded: improved echocardiographically derived FS
same,FS in % in CSQ Mice,CSQ heart failure mice [2],20.25% and 20.25 ± 1.19%
Nc1nc(Cl)nc2c1ncn2[C@H]1[C@H](O)[C@H](O)C2(CSP(=O)(O)O)C[C@H]12 (stereo partly drawn) [Compound 4a],LV posterior wall thickness,CSQ heart failure mice [5]; [6],0.493±0.016 mm
same,LV septal wall thickness,CSQ heart failure mice [5]; [6],0.492±0.012 mm
same,cardioprotection in CSQ mice (in words),CSQ heart failure mice [5]; CSQ mice,could protect the CSQ mice
same,FS in % in CSQ Mice,CSQ heart failure mice [5],14.33 ± 3.77%
"Nc1ncnc2c1ncn2[C@H]1[C@H](O)[C@H](O)C2(CP(=O)(O)O)C[C@H]12 (stereo partly drawn) [Compound 5, (1′S,2′R,3′S,4′R,5′S)-4′-(6-Aminopurin-9-yl)-2′,3′-(dihydroxy)-1′-(phosphonomethylene)-bicyclo[3.1.0]hexane]",FS in % in CSQ Mice,CSQ heart failure mice [2],16.23 ± 0.93%
"Nc1nc(Cl)nc2c1ncn2[C@H]1[C@H](O)[C@H](O)C2(/C=C/P(=O)(O)O)C[C@H]12 (stereo partly drawn) [Compound 7, (1′S,2′R,3′S,4′R,5′S)-4′-(6-Amino-2-chloropurin-9-yl)-2′,3′-(dihydroxy)-1′-[(E)-phosphonoethenyl]-bicyclo[3.1.0]-hexane]",cardioprotection in the CSQ model (in words),CSQ heart failure mice [2],not protective
same,effect on echocardiography-derived FS / cardiac contractile function versus normal saline (in words),CSQ heart failure mice [2],lower FS values
same,FS in % in CSQ Mice,CSQ heart failure mice [2],12.12 ± 1.2%
same,effect on LV fractional shortening versus normal saline (in words),CSQ heart failure mice [5]; CSQ mice,did not improve FS
same,prevention of LV wall thinning in heart failure (in words),CSQ heart failure mice [5]; CSQ mice,did not improve FS or prevent LV wall thinning
"Nc1nc(I)nc2c1ncn2[C@H]1[C@H](O)[C@H](O)C2(CP(=O)(O)O)C[C@H]12 (stereo partly drawn) [Compound 7a, (1′S,2′R,3′S,4′R,5′S)-4′-(6-Amino-2-iodoropurin-9-yl)-2′,3′-(dihydroxy)-1′-(phosphonomethylene)-bicyclo[3.1.0]hexane]",cardioprotection in CSQ mice (in words),CSQ heart failure mice [5]; CSQ mice,abolished protection; also recorded: not protective
same,effect on LV fractional shortening versus normal saline (in words),CSQ heart failure mice [5]; CSQ mice,did not improve FS; also recorded: lower FS values
same,FS in % in CSQ Mice,CSQ heart failure mice [5],10.33 ± 1.77%
same,prevention of LV wall thinning in heart failure (in words),CSQ heart failure mice [5]; CSQ mice,did not improve FS or prevent LV wall thinning
"Nc1ncnc2c1ncn2[C@H]1[C@H](O)[C@H](O)C2(/C=C/P(=O)(O)O)C[C@H]12 (stereo partly drawn) [Compound 8, (1′S,2′R,3′S,4′R,5′S)-4′-(6-Aminopurin-9-yl)-2′,3′-(dihydroxy)-1′-[(E)-phosphonoethenyl]-bicyclo[3.1.0]hexane]",cardioprotection in the CSQ model (in words),CSQ heart failure mice [2],not protective
same,effect on echocardiography-derived FS / cardiac contractile function versus normal saline (in words),CSQ heart failure mice [2],lower FS values
same,FS in % in CSQ Mice,CSQ heart failure mice [2],13.88 ± 2.12%
Nc1nc(Cl)nc2c1ncn2[C@H]1[C@H](O)[C@H](O)C2(CCP(=O)(O)O)C[C@H]12 (stereo partly drawn) [Compound 9],cardioprotection in the CSQ model (in words),CSQ heart failure mice [2],clearly protective in vivo
same,effect on echocardiography-derived FS / cardiac contractile function versus normal saline (in words),CSQ heart failure mice [2],improved FS; also recorded: able to enhance cardiac contractile function
same,FS in % in CSQ Mice,CSQ heart failure mice [2],19.26% and 19.26 ± 1.23%
"CCOP(=O)(CC12C[C@@H]1[C@@H](n1cnc3c(N)nc(Cl)nc31)[C@H](O)[C@@H]2O)OCC (stereo partly drawn) [Compound 9a, Diethyl-(1′S,2′R,3′S,4′R,5′S)-4′-(6-amino-2-chloropurin-9-yl)-2′,3′-(hydroxy)-bicyclo[3.1.0]hexane phosphonate]",stability to acidic conditions,[3],stable
same,hydrolysis in the presence of mammalian cell membranes,[4],considerable hydrolysis
same,cardioprotection in CSQ mice (in words),CSQ heart failure mice [5]; CSQ mice,not protective
same,effect on LV fractional shortening versus normal saline (in words),CSQ heart failure mice [5]; CSQ mice,did not improve FS
same,FS in % in CSQ Mice,CSQ heart failure mice [5],8.58 ± 2.09%
same,prevention of LV wall thinning in heart failure (in words),CSQ heart failure mice [5]; CSQ mice,did not improve FS or prevent LV wall thinning
Nc1ncnc2c1ncn2[C@H]1[C@H](O)[C@H](O)C2(CCP(=O)(O)O)C[C@H]12 (stereo partly drawn) [Compound 10],cardioprotection in the CSQ model (in words),CSQ heart failure mice [2],not protective
same,effect on echocardiography-derived FS / cardiac contractile function versus normal saline (in words),CSQ heart failure mice [2],lower FS values; also recorded: did not improve the contractile function
same,FS in % in CSQ Mice,CSQ heart failure mice [2],11.15 ± 1.44%
"CP(=O)(O)CC12C[C@@H]1[C@@H](n1cnc3c(N)nc(Cl)nc31)[C@H](O)[C@@H]2O (stereo partly drawn) [Compound 11, (1′S,2′R,3′S,4′R,5′S)-4′-(6-Amino-2-chloropurin-9-yl)-2′,3′-dihydroxy-1′-(methylphosphonicacid)-bicyclo[3.1.0]hexane]",effect on echocardiography-derived FS / cardiac contractile function versus normal saline (in words),CSQ heart failure mice [2],lower FS values
same,FS in % in CSQ Mice,CSQ heart failure mice [2],15.0 ± 1.2%
CNc1nc(I)nc2c1ncn2[C@H]1C[C@H](OP(=O)(O)O)[C@]2(COP(=O)(O)O)C[C@H]12 [MRS2500],block of the membrane current evoked by 3,mouse cardiac myocytes,could not block the membrane current evoked by 3
